Measured values taken from patent US12545685B2 (Daiichi Sankyo Company, Limited, priority 2011, dated 2026).
Structures can show the parent of a compound that is named as a salt. Each block holds one compound with its values, some of them ahead of it.

How the values were obtained:
[1] = system: human lung cancer-derived cell line NCI-H460 having wild-type p53; test: Cell growth inhibition assay (MTT); assay type: cell-based; settings: 72 h, NCI-H460 cells, 3 days culture, values given as ranges, read-out: 50% growth inhibition concentration (GI50 value)
Protocol: A cell growth inhibition assay was conducted using a human lung cancer-derived cell line NCI-H460 having wild-type p53.
NCI-H460 cells were suspended in a medium (RPMI1640 medium containing 10% fetal bovine serum) and the suspension was added in an amount of 500 cells/150 μl/well to a 96-well plate. A test compound was dissolved in DMSO and this solution was diluted with medium to prepare a sample solution (DMSO concentration: 1% or lower). On the next day, medium nonsupplemented with the test compound, or the sample solution, was added in an amount of 50 μl/well. Cells were then cultured at 37° ° C. for 3 days in a 5% CO2 atmosphere.
An MTT assay was conducted immediately after the nonsupplemented medium or the sample solution was added. Another MTT assay was conducted after culturing the cells for 3 days. The MIT assays were conducted as shown below.
A 5 mg/ml MTT (3-(4,5-dimethylthiazol-2-yl)-2,5-diphenyltetrazolium bromide, Sigma-Aldrich Co., M-2128) solution was prepared using a phosphate buffer solution (Dulbecco's Phosphate-buffered Saline). This MIT solution was added in an amount of 20 μl/well. Then the plate was cultured at 37° ° C. for 4 hours in a 5% CO2 atmosphere. The plate was centrifuged at 1200 rpm for 5 minutes and then the culture supernatant was removed by aspiration using a dispenser. DMSO was added in an amount of 150 μl/well to dissolve generated formazan. The plate was stirred using a plate mixer for uniform color development from each well. The absorbance of each well was measured at OD 540 nm and at a reference OD (660 nm) using a plate reader (SpectraMax PLUS384, Molecular Devices, CA, USA).
The OD value measured on the day of adding the sample solution was defined as S. The OD value measured three days after addition of the sample solution was defined as T. The OD value measured three days after addition of the DMSO dilution was defined as C. T/C (%) was determined at each concentration according to the formula shown below in order to prepare a dose response curve, from which 50% growth inhibition concentration (GI50 value) was calculated.

[2] = molecular target: T1, Mdm2/p53 binding (GST-Mdm2 / His-p53) (Homo sapiens, UniProt Q00987, L33E); test: Mdm2/p53 binding assay (HTRF, His-p53 and GST-Mdm2); settings: His-p53 (aa 1-132) and GST-Mdm2 (aa 25-108, L33E) 6.25 nM each; 25°C, 1 hour; values given as ranges
T1 construct: Mdm2 partial protein having Mdm2 amino acids at positions 25 to 108
T1 sequence (Q00987 25-108 L33E): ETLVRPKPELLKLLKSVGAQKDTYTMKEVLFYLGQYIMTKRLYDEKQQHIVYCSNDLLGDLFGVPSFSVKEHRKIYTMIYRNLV
How it was run: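 Binding was detected by HTRF (ex 320 nm, em 620/665 nm) after 1 h at 25 °C, using Eu-cryptate anti-GST and XL665 anti-His antibodies. The protein pair was GST-Mdm2 (residues 25–108, L33E) with His-p53 (residues 1–132), each 6.25 nM in the protein dilution. T/C used no-compound control and no-p53 background, and IC50 came from sigmoid fitting.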

SMILES: CC1(C)CCC2(CC1)N[C@@H](C(=O)N[C@@H]1CC[C@@H](C(O)CO)OC1)[C@H](c1ccnc(Cl)c1F)[C@]21C(=O)Nc2cc(Cl)ccc21 (single isomer, unassigned) [Example 90]
GI50 [1]: 100 to 500 nM

SMILES: CC1(C)CCC2(CC1)N[C@@H](C(=O)N[C@@H]1CC[C@@H](C(N)=O)OC1)[C@H](c1ccnc(Cl)c1F)[C@]21C(=O)Nc2cc(Cl)ccc21 [Example 70, (3′R, 4′S,5′R)—N-[(3R,6S)-6-carbamoyltetrahydro-2H-pyran-3-yl]-6″-chloro-4′-(2-chloro-3-fluoropyridin-4-yl)-4,4-dimethyl-2″-oxo-1″,2″-dihydrodispiro[cyclohexane-1,2′-pyrrolidine-3′,3″-indole]-5′-carboxamide]
GI50 [1]: < 100 nM

SMILES: CN(C)C(=O)[C@@H]1CC[C@@H](NC(=O)[C@@H]2NC3(CC(CF)(CF)C3)[C@@]3(C(=O)Nc4cc(Cl)ccc43)[C@H]2c2ccnc(Cl)c2F)CO1 [Example 167, (3′R, 4′S,5′R)-6″-chloro-4′-(2-chloro-3-fluoropyridin-4-yl)-N-[(3R,6S)-6-(dimethylcarbamoyl)tetrahydro-2H-pyran-3-yl]-3,3-bis(fluoromethyl)-2″-oxo-1′″, 2′″-dihydrodispiro[cyclobutane-1,2′-pyrrolidine-3′,3″-indole]-5″-carboxamide]
IC50 [2]: 1 to 50 nM

SMILES: O=C(N[C@@H]1CC[C@@H](CO)OC1)[C@@H]1NC2(CC(CF)(CF)C2)[C@@]2(C(=O)Nc3cc(Cl)ccc32)[C@H]1c1cc(Cl)cc(Cl)c1 [Example 169, (3′R, 4′R, 5′R)-6″-chloro-4′-(3,5-dichlorophenyl)-3,3-bis(fluoromethyl)-N-[(3R,6S)-6-(hydroxymethyl)tetrahydro-2H-pyran-3-yl]-2″-oxo-1″,2″-dihydrodispiro[cyclobutane-1,2′-pyrrolidine-3′,3″-indole]-5′-carboxamide]
IC50 [2]: 50 to 100 nM

SMILES: C[C@@H](O)[C@@H]1CC[C@@H](NC(=O)[C@@H]2NC3(CC(CF)(CF)C3)[C@@]3(C(=O)Nc4cc(Cl)ccc43)[C@H]2c2ccnc(Cl)c2F)CO1 [Example 170, (3′R, 4′S,5′R)-6″-chloro-4′-(2-chloro-3-furopyridinyl-4-yl)-3,3-bis(fluoromethyl)-N-{(3R,6S)-6-[(1R)-1-hydroxyethyl]tetrahydro-2H-pyran-3-yl}-2″-oxo-1″,2″-dihydrodispiro[cyclobutane-1,2′-pyrrolidine-3′,3′-indole]-5′-carboxamide]
IC50 [2]: 50 to 100 nM

SMILES: Cn1cncc1CNC(=O)[C@@H]1NC2(CCC(C)(C)CC2)[C@@]2(C(=O)Nc3cc(Cl)ccc32)[C@H]1c1ccnc(Cl)c1F [Example 171, (3′R, 4′S, S′R)-6″-chloro-4′-(2-chloro-3-fluoropyridin-4-yl)-4,4-dimethyl-N-[(1-methyl-1H-imidazol-5-yl)methyl]-2″-oxo-1″,2″-dihydrodispiro[cyclohexane-1,2″-pyrrolidine-3′,3″-indole]-5′-carboxamide]
IC50 [2]: 50 to 100 nM

SMILES: O=C(N[C@@H]1CC[C@@H](CO)OC1)[C@@H]1NC2(CC(CF)(CF)C2)[C@@]2(C(=O)Nc3cc(Cl)ccc32)[C@H]1c1ccc(F)c(Cl)c1F [Example 172, (3′R,4′S,5′R)-6″-chloro-4′-(3-chloro-2,4-difluorophenyl)-3,3-bis(fluoromethyl)-N-[(3R,6S)-6-(hydroxymethyl)tetrahydro-2H-pyran-3-yl]-2′-oxo-1″,2″-dihydrodispiro[cyclobutane-1,2′-pyrrolidine-3′,3″-indole]-5′-carboxamide]
IC50 [2]: 1 to 50 nM

SMILES: COC(=O)[C@@H]1CC[C@@H](NC(=O)[C@@H]2NC3(CCC(C)(C)CC3)[C@@]3(C(=O)Nc4cc(Cl)ccc43)[C@H]2c2ccnc(Cl)c2F)CO1 [Example 173, Methyl (2S,5R)-5-({[(3′S,4′S,5′R)-6″-chloro-4′-(2-chloro-3-fluoropyridin-4-yl)-4,4-dimethyl-2″-oxo-1″,2″-dihydrodispiro[cyclohexane-1,2′-pyrrolidine-3′,3′-indole]-5′-yl]carbonyl}amino)tetrahydro-2H-pyran-2-carboxylate]
IC50 [2]: 50 to 100 nM

SMILES: O=C(N[C@@H]1CC[C@@H](CO)OC1)[C@@H]1NC2(CC(CF)(CF)C2)[C@@]2(C(=O)Nc3cc(Cl)ccc32)[C@H]1c1cccc(Cl)c1 [Example 175, (3′R, 4′R, 5′R)-6″-chloro-4′-(3-chlorophenyl)-3,3-bis(fluoromethyl)-N-[(3R,6S)-6-(hydroxymethyl)tetrahydro-2H-pyran-3-yl]-2″-oxo-1″,2″-dihydrodispiro[cyclobutane-1,2′-pyrrolidine-3′,3″-indole]-5′-carboxamide]
IC50 [2]: 50 to 100 nM

The remaining lines, values ahead:

IC50 [2]: 1 to 50 nM
SMILES: O=C(N[C@@H]1CC[C@@H](CO)OC1)[C@@H]1NC2(CC(CF)(CF)C2)[C@@]2(C(=O)Nc3cc(Cl)ccc32)[C@H]1c1cc(F)cc(Cl)c1F [Example 176, (3′R, 4′S,5′R)-6″-chloro-4′-(3-chloro-2,5-difluorophenyl)-3,3-bis(fluoromethyl)-N-[(3R,6S)-6-(hydroxymethyl)tetrahydro-2H-pyran-3-yl]-2″-oxo-1″,2″-dihydrodispiro[cyclobutane-1,2′-pyrrolidine-3′,3″-indole]-5′-carboxamide]

IC50 [2]: 1 to 50 nM
SMILES: CC1(C)CCC2(CC1)N[C@@H](C(=O)NC1CCN(c3nnn[nH]3)CC1)[C@H](c1ccnc(Cl)c1F)[C@]21C(=O)Nc2cc(Cl)ccc21 [Example 178, (3′R, 4′S,5′8)-6″-chloro-4′-(2-chloro-3-fluoropyridin-4-yl)-4,4-dimethyl-2″-oxo-N-[1-(1H-tetrazol-5-yl)piperidin-4-yl]-1″,2″-dihydrodispiro[cyclohexane-1,2′-pyrrolidine-3′,3″-indole]-5′-carboxamide]

IC50 [2]: 1 to 50 nM
SMILES: CC1(C)CCC2(CC1)N[C@@H](C(=O)N[C@@H]1CC[C@@H](C(N)=O)OC1)[C@H](c1cccc(Cl)c1F)[C@]21C(=O)Nc2cc(Cl)ccc21 [Example 181, (3′R, 4′S,5′R)-N-[(3R, 6S)-6-carbamoyltetrahydro-2H-pyran-3-yl]-6″-chloro-4′-(3-chloro-2-fluorophenyl)-4,4-dimethyl-2″-oxo-1″,2″-dihydrodispiro[cyclohexane-1,2′-pyrrolidine-3′,3′-indole]-5′-carboxamide]

IC50 [2]: 1 to 50 nM
SMILES: CC1(C)CCC2(CC1)N[C@@H](C(=O)N[C@@H]1CCC(C)(C(N)=O)OC1)[C@H](c1ccnc(Cl)c1F)[C@]21C(=O)Nc2cc(Cl)ccc21 (stereo partly drawn) [Example 187, (3′R, 4′S,5′R)—N-[(3R)-6-carbamoyl-6-methyltetrahydro-2H-pyran-3-yl]-6″-chloro-4′-(2-chloro-3-fluoropyridin-4-yl)-4,4-dimethyl-2″-oxo-1″,2″-dihydrodispiro[cyclohexane-1,2′-pyrrolidine-3′,3″-indole]-5′-carboxamide]

IC50 [2]: 1 to 50 nM
SMILES: CC1(C)CCC2(CC1)N[C@@H](C(=O)NC1(C)CC[C@@H](C(N)=O)OC1)[C@H](c1ccnc(Cl)c1F)[C@]21C(=O)Nc2cc(Cl)ccc21 (stereo partly drawn) [Example 189, (3′R, 4′S,5′R)—N-[(6S)-6-carbamoyl-3-methyltetrahydro-2H-pyran-3-yl]-6″-chloro-4′-(2-chloro-3-fluoropyridin-4-yl)-4,4-dimethyl-2″-oxo-1′1,2″-dihydrodispiro[cyclohexane-1,2′-pyrrolidine-3′,3″-indole]-5′-Carboxamide]

IC50 [2]: 1 to 50 nM
SMILES: C[C@@H](O)[C@@H]1CC[C@@H](NC(=O)[C@@H]2NC3(CCC(C)(C)CC3)[C@@]3(C(=O)Nc4cc(Cl)ncc43)[C@H]2c2ccnc(Cl)c2F)CO1 [Example 192, 6″-Chloro-4′-(2-chloro-3-fluoropyridin-4-yl)-N-{(3R,6S)-6-[(1R)-1-hydroxyethyl]tetrahydro-2H-pyran-3-yl}-4,4-dimethyl-2″-oxo-1″,2″-dihydrodispiro[cyclohexane-1,2′-pyrrolidine-3′,3″-pyrrolo[3,2-c]pyridine]-5′-carboxamide]

IC50 [2]: 1 to 50 nM
SMILES: CC1(C)CCC2(CC1)N[C@@H](C(=O)N[C@@H]1CC[C@@H](C(N)=O)OC1)[C@H](c1ccnc(Cl)c1F)[C@]21C(=O)Nc2cc(Cl)ccc21 [Example 193, (3′R, 4′S, S′R)—N-[(3R,6S)-6-carbamoyltetrahydro-2H-pyran-3-yl]-6″-chloro-4′-(2-chloro-3-fluoropyridin-4-yl)-4,4-dimethyl-2″-oxo-1″,2″-dihydrodispiro[cyclohexane-1,2′-pyrrolidine-3′,3″-indole]-5′-carboxamide hydrochloride water/2-propanol (IPA) solvate]
